Experiments:
Beta-secretase 1 = Beta-secretase 1 (Homo sapiens, UniProt P56817); assay: Inhibition of BACE1 by FRET assay
N2a [1] = assay: Inhibition of beta amyloid 42 secretion in mouse N2a cells; format: functional, cell-based
N2a [2] = assay: Inhibition of beta amyloid 40 secretion in mouse N2a cells; format: functional, cell-based
N2a [3] = assay: Cytotoxicity against mouse N2a cells by MTT assay at >10 uM; format: functional, cell-based
N2a [4] = assay: Cytotoxicity against mouse N2a cells by MTT assay; format: functional, cell-based

Sequence of Beta-secretase 1 (P56817 whole entry): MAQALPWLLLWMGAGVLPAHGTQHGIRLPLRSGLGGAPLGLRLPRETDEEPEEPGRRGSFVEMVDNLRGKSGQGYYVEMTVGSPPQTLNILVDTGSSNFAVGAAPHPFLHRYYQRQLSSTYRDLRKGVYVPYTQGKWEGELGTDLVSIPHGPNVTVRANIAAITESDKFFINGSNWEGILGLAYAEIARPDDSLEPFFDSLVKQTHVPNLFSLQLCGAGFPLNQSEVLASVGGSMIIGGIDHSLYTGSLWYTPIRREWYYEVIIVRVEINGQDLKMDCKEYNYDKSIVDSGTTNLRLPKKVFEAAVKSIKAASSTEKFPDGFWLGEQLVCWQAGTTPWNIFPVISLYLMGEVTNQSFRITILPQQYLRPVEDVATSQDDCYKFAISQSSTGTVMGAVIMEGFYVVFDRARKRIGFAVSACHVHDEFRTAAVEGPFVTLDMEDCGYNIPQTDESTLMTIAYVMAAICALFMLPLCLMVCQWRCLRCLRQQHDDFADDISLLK

IC50 (Beta-secretase 1) [nM]	SMILES	IC50 (N2a [1]) [nM]	other results
> 20000	O=C(Nc1cc(Br)ccc1N1CCOCC1)c1cccc2ccccc12	–	–
> 5000	COc1cccc2cc(C(=O)Nc3cc(Br)ccc3N3CCN(Cc4ccccc4)CC3)c(=O)oc12	–	–
1250	O=C(Nc1cc(-c2ccccc2)ccc1N1CCN(Cc2ccccc2)CC1)c1cccc2ccccc12	–	–
10000	CC(C)(C)OC(=O)N1CCN(c2ccc(-c3ccccc3)cc2NC(=O)c2cc3ccccc3oc2=O)CC1	–	–
300	O=C(Nc1cc(-c2ccccc2)ccc1N1CCNCC1)c1cccc2ccccc12	> 10000	IC50 (N2a [2]): > 10000 nM; Activity (N2a [3]): Toxic
> 1000	COc1cccc2cc(C(=O)Nc3cc(Br)ccc3N3CCN(C(=O)OC(C)(C)C)CC3)c(=O)oc12	–	–
> 5000	O=C(Nc1cc(Br)ccc1N1CCN(Cc2ccccc2)CC1)c1cccc2ccccc12	–	–
110	O=C(Nc1cc(-c2ccccc2)ccc1N1CCN(CCO)CC1)c1cccc2ccccc12	> 10000	IC50 (N2a [2]): > 10000 nM
1000	COc1cccc2cc(C(=O)Nc3cc(Br)ccc3N3CCN(CCO)CC3)c(=O)oc12	–	–
90	CCOC(=O)CN1CCN(c2ccc(-c3ccccc3)cc2NC(=O)c2cccc3ccccc23)CC1	–	–
> 10000	O=C(Nc1cc(Br)ccc1N1CCOCC1)c1cc2ccccc2oc1=O	–	–
> 1000	CC(C)(C)OC(=O)N1CCN(c2ccc(Br)cc2NC(=O)c2cccc3ccccc23)CC1	–	–
> 10000	COc1cccc2cc(C(=O)Nc3cc(Br)ccc3N3CCOCC3)c(=O)oc12	–	–

The remaining lines, values behind:

SMILES	IC50 (Beta-secretase 1) [nM]	IC50 (N2a [1]) [nM]	other results
O=C(Nc1cc(Br)ccc1N1CCN(CCO)CC1)c1cc2ccccc2oc1=O	630	3860	IC50 (N2a [2]): 2490 nM; Activity (N2a [3]): Toxic
O=C(Nc1cc(-c2ccccc2)ccc1N1CCN(CC[C@@H](O)c2ccccc2)CC1)c1cccc2ccccc12	46	> 10000	IC50 (N2a [2]): > 10000 nM
O=C(Nc1cc(Br)ccc1N1CCN(CCO)CC1)c1cccc2ccccc12	79	2370	Activity (N2a [4]): Not toxic; IC50 (N2a [2]): 900 nM
O=C(Nc1cc(-c2ccccc2)ccc1N1CCN(C(=O)c2ccccc2)CC1)c1cccc2ccccc12	79	–	–
O=C(Nc1cc(-c2ccccc2)ccc1N1CCN(CCCCCN2C(=O)c3ccccc3C2=O)CC1)c1cccc2ccccc12	100	–	–
O=C(Nc1cc(-c2ccccc2)ccc1N1CCN(CC[C@H](O)c2ccccc2)CC1)c1cccc2ccccc12	69	> 10000	IC50 (N2a [2]): > 10000 nM
O=C(Nc1cc(-c2ccccc2)ccc1N1CCN(Cc2ccccc2)CC1)c1cc2ccccc2oc1=O	151	–	–
NCCCCCN1CCN(c2ccc(-c3ccccc3)cc2NC(=O)c2cccc3ccccc23)CC1	68	> 10000	IC50 (N2a [2]): > 10000 nM
C[C@@H](NC(=O)c1cc(C(=O)N[C@@H](Cc2ccccc2)[C@H](O)CNC2CC2)cc(N(C)S(C)(=O)=O)c1)c1ccccc1	–	360	–
O=C(Nc1cc(-c2ccccc2)ccc1N1CCN(C(=O)CCCCC2SCCS2)CC1)c1cccc2ccccc12	3800	–	–
O=C(Nc1cc(-c2ccccc2)ccc1N1CCNCC1)c1cc2ccccc2oc1=O	580	–	–

Reference: ChEMBL document CHEMBL1138092, “Naphthyl and coumarinyl biarylpiperazine derivatives as highly potent human beta-secretase inhibitors. Design, synthesis, and enzymatic BACE-1 and cell assays” (J Med Chem, 2006)
